Assays:
[1] = test system: BTK-C481S-mutant OCI-Ly10 cells; assay: Dose-response study of BTK inhibitor in the presence of BCL-2 inhibitor, BTK-C481S-mutant OCI-Ly10; assay type: cell-based; details: Homo sapiens, read-out: Inhibitory activity on cell proliferation OCI-Ly10 BTK-C481S IC50
Procedure: (§1) BTK-C481S-mutant OCI-Ly10 cells were produced by point mutation knock-in using the CRISPR-Cas9 system. Cas9 protein (Thermo Fisher Scientific Inc.), guide RNA prepared with GeneArt™ Precision gRNA Synthesis Kit (Thermo Fisher Scientific Inc.), and a single-stranded synthetic oligonucleotide to replace 481st cysteine residue of BTK with a serine residue were introduced into OCI-Ly10 cells by an electroporation method. The resulting modified OCI-Ly10 cells were cultured in the presence of ibrutinib, and the grown cells were used as BTK-C481S-mutant OCI-Ly10 cells. Transduction of the mutation was confirmed by genomic DNA and mRNA sequence analysis.
BTK-C481S-mutant lymphoma cells were used to examine changes in IC50 values of the BTK inhibitor in the presence of various concentrations of BCL-2 inhibitor.
From the results obtained for the BCL-2 inhibitor used as a single agent, BCL-2 inhibitor concentrations for three doses were selected for BTK-C481-mutant OCI-Ly10 cells.

[2] = test system: BTK-C481S-mutant OCI-Ly10 cells; assay: Cell proliferation suppression test of single agents, BTK-C481S-mutant OCI-Ly10; assay type: cell-based, Human; details: Homo sapiens, OCI-Ly10; single agent; read-out: Inhibitory activity on cell proliferation OCI-Ly10 BTK-C481S IC50
Procedure: (§2) The OCI-Ly10 or U2932 cells (20000 cells/well) were seeded into 96-well plates (cell plates), to which the test compound diluted with the medium was added at final concentrations of 0.009 nM to 30000 nM (a final DMSO concentration of 0.3%), and after 96 hours of culture, an Alamar Blue reagent (Thermo Fisher Scientific Inc.) was added. After 3 hours, the fluorescence of excitation wavelength 560 nm/fluorescence wavelength 590 nm was measured and IC50 values of inhibitory activity were determined by setting a compound-free and cell-free well as 100% and a compound-free and cell-containing well as 0%.
as §1
In the same manner as in Test Example 1, IC50 values for each inhibitor single agent were determined.

OCI-Ly10 cells [3] = assay: Dose-response study of BTK inhibitor in the presence of BCL-2 inhibitor, OCI-Ly10; assay type: cell-based; details: Homo sapiens, read-out: Inhibitory activity on cell proliferation OCI-Ly10 IC50
Procedure: as §2
(§3) Changes in IC50 values of the BTK inhibitor in the presence of the BCL-2 inhibitor at various concentrations were examined.

U2932 cells [4] = assay: Dose-response study of BTK inhibitor in the presence of BCL-2 inhibitor, U2932; assay type: cell-based; details: Homo sapiens, read-out: Inhibitory activity on cell proliferation U2932 IC50
Procedure: as §2, §3
From the result obtained for the BCL-2 inhibitor used as a single agent, BCL-2 inhibitor concentrations for three doses were selected for each cancer cell line.

U2932 cells [5] = assay: Cell proliferation suppression test of single agents, U2932 (Alamar Blue, 96 h); assay type: cell-based, Human; details: Homo sapiens, U2932, single agent, read-out: Inhibitory Activity on cell proliferation IC50 U2932
Procedure: Human lymphoma cell line U2932 cells (obtained from DSMZ) were cultured in a 5% CO2 incubator using RPMI medium (Roswell Park Memorial Institute medium, Thermo Fisher Scientific Inc.) containing 10% fetal bovine serum (GE Healthcare) and 1% penicillin streptomycin (NACALAI TESQUE, INC.).
as §2

OCI-Ly10 cells [6] = assay: Cell proliferation suppression test of single agents, OCI-Ly10 (Alamar Blue, 96 h); assay type: cell-based, Human; details: Homo sapiens, OCI-Ly10, single agent, read-out: Inhibitory Activity on cell proliferation IC50 OCI-Ly10
Procedure: Human lymphoma cell line OCI-Ly10 cells (obtained from University Health Network) were cultured in a 5% CO2 incubator using IMDM medium (Iscove's Modified Dulbecco's Medium, Thermo Fisher Scientific Inc.) containing 20% fetal bovine serum (GE Healthcare) and 1% penicillin streptomycin (NACALAI TESQUE, INC.).
as §2

[7] = OCI-Ly10, in the presence of S-55746 10 nM
[8] = OCI-Ly10, in the presence of S-55746 30 nM
[9] = OCI-Ly10, in the presence of S-55746 100 nM
[10] = OCI-Ly10, in the presence of navitoclax 10 nM
[11] = OCI-Ly10, in the presence of navitoclax 30 nM
[12] = OCI-Ly10, in the presence of navitoclax 100 nM
[13] = OCI-Ly10, in the presence of obatoclax mesylate 50 nM
[14] = OCI-Ly10, in the presence of obatoclax mesylate 100 nM
[15] = OCI-Ly10, in the presence of obatoclax mesylate 200 nM
[16] = OCI-Ly10, in the presence of venetoclax 1 nM
[17] = OCI-Ly10, in the presence of venetoclax 3 nM
[18] = OCI-Ly10, in the presence of venetoclax 10 nM
[19] = OCI-Ly10, obatoclax mesylate 0 nM

SMILES: Cn1cc(Nc2nc(N)nc(-c3cccc(-n4ccc5cc(C6CC6)cc(F)c5c4=O)c3CO)n2)cn1 [Compound (II-A), 2-(3-{4-Amino-6-[(1-methyl-1H-pyrazol-4-yl)amino]-1,3,5-triazin-2-yl}-2-(hydroxymethyl)phenyl)-6-cyclopropyl-8-fluoroisoquinolin-1(2H)-one]
- IC50 ([1]; OCI-Ly10, S-55746 0 nM): 0.15 µM
- IC50 [1, 7]: 0.094 µM
- IC50 [1, 8]: 0.069 µM
- IC50 [1, 9]: 0.039 µM
- IC50 [1, 10]: 0.26 µM
- IC50 [1, 11]: 0.21 µM
- IC50 [1, 12]: 0.11 µM
- IC50 [1, 13]: 0.1 µM
- IC50 [1, 14]: 0.095 µM
- IC50 [1, 15]: 0.061 µM
- IC50 [1, 16]: 0.11 µM
- IC50 [1, 17]: 0.08 µM
- IC50 [1, 18]: 0.053 µM
- IC50 ([1]; OCI-Ly10, navitoclax 0 nM): 0.34 µM
- IC50 [1, 19]: 0.3 µM
- IC50 ([1]; OCI-Ly10, venetoclax 0 nM): 0.15 µM
- IC50 [2]: 0.15 µM
- IC50 (OCI-Ly10 cells [3]; OCI-Ly10, S-55746 0 nM): 0.033 µM
- IC50 (OCI-Ly10 cells [3]; [7]): 0.029 µM
- IC50 (OCI-Ly10 cells [3]; [8]): 0.025 µM
- IC50 (OCI-Ly10 cells [3]; [9]): 0.018 µM
- IC50 (OCI-Ly10 cells [3]; [10]): 0.051 µM
- IC50 (OCI-Ly10 cells [3]; [11]): 0.042 µM
- IC50 (OCI-Ly10 cells [3]; [12]): 0.026 µM
- IC50 (OCI-Ly10 cells [3]; [13]): 0.025 µM
- IC50 (OCI-Ly10 cells [3]; [14]): 0.028 µM
- IC50 (OCI-Ly10 cells [3]; [15]): 0.03 µM
- IC50 (OCI-Ly10 cells [3]; [16]): 0.038 µM
- IC50 (OCI-Ly10 cells [3]; [17]): 0.027 µM
- IC50 (OCI-Ly10 cells [3]; [18]): 0.019 µM
- IC50 (OCI-Ly10 cells [3]; OCI-Ly10, navitoclax 0 nM): 0.059 µM
- IC50 (OCI-Ly10 cells [3]; [19]): 0.038 µM
- IC50 (OCI-Ly10 cells [3]; OCI-Ly10, venetoclax 0 nM): 0.042 µM
- IC50 (U2932 cells [4]; U2932, S-55746 0 nM): > 30 µM
- IC50 (U2932 cells [4]; U2932, in the presence of S-55746 100 nM): 5.74 µM
- IC50 (U2932 cells [4]; U2932, in the presence of S-55746 300 nM): 0.93 µM
- IC50 (U2932 cells [4]; U2932, in the presence of S-55746 1000 nM): 0.1 µM
- IC50 (U2932 cells [4]; U2932, in the presence of navitoclax 30 nM): 13.4 µM
- IC50 (U2932 cells [4]; U2932, in the presence of navitoclax 100 nM): 1.36 µM
- IC50 (U2932 cells [4]; U2932, in the presence of navitoclax 300 nM): 0.1 µM
- IC50 (U2932 cells [4]; U2932, in the presence of obatoclax mesylate 50 nM): 28.7 µM
- IC50 (U2932 cells [4]; U2932, in the presence of obatoclax mesylate 100 nM): 25.8 µM
- IC50 (U2932 cells [4]; U2932, in the presence of venetoclax 3 nM): 8.51 µM
- IC50 (U2932 cells [4]; U2932, in the presence of venetoclax 10 nM): 2.19 µM
- IC50 (U2932 cells [4]; U2932, in the presence of venetoclax 100 nM): 0.16 µM
- IC50 (U2932 cells [4]; U2932, navitoclax 0 nM): > 30 µM
- IC50 (U2932 cells [4]; U2932, obatoclax mesylate 0 nM): > 30 µM
- IC50 (U2932 cells [4]; U2932, venetoclax 0 nM): > 30 µM
- IC50 (U2932 cells [5]): 34.7 µM
- IC50 (OCI-Ly10 cells [6]): 0.042 µM

From patent publication US20230100235A1, “ANTICANCER AGENT COMPOSITION” (CARNA BIOSCIENCES, INC., priority 2020, published 2023)
